The test system of this experiment is hair growth of flank organs. The experiment can be described thus: hamster flank organ hair mass assay (reduction of hair growth). Type of experiment: in vivo, Male intact Golden Syrian hamsters. As to conditions: for reducing hair growth (result in words): vehicle and test not given. On the procedure:
These organs produce hair in response to androgens in the hamster. To evaluate the effectiveness of a particular inhibitor in reducing hair growth, the flank organs of each of a group of hamsters are depilated by applying a thioglycolate based chemical depilatory (Surgex). To one organ of each animal 10 μl. of vehicle alone once a day is applied, while to the other organ of each animal an equal amount of vehicle containing the inhibitor is applied. After thirteen applications (one application per day for five days a week), the flank organs are shaved and the amount of recovered hair (hair mass) from each is weighed. […] Some preferred inhibitors were tested according to the above procedure.

Where [1] appears, read: Table 3: 5% in Vehicle A, pH 7.5.
Setting [2] is: Table 3: 10% in Vehicle A, pH 7.5.
The mark [3] stands for this setting: Table 3: 10% in Vehicle F, pH 5.5.
Where [4] appears, read: Table 3: 15% in Vehicle A, pH 7.5.
Where [5] appears, read: Table 3: 20% in Vehicle A, pH 8.0.
The mark [6] stands for this setting: Table 3: 20% in Vehicle B, pH 7.0.
Setting [7] is: Table 3: 20% in Vehicle F, pH 5.5.

`CC(Cc1ccc(O)c(O)c1)C(C)Cc1ccc(O)c(O)c1` (stereo not drawn) [NDGA, nordihydroguaiaretic acid]: the “reducing hair growth (result in words)” value was “effective in reducing hair growth”. Besides, for the setting “Dose 10%, Vehicle B, pH 6.5, thirteen applications”, the “Hair Mass Treated” value is reported as 0.450 ± .11 mg. Moreover, the “Percent Inhibition” value (Dose 10%, Vehicle B, pH 6.5, vs vehicle treated side) worked out at 81 ± 4%.
Regarding `Cc1cccc(Nc2ccccc2C(=O)O)c1C` [Mefenamic acid, 2-[(2,3-dimethylphenyl)amino]benzoic acid], the “Hair Mass Treated” value (Dose 10%, Vehicle A, pH 8.8, thirteen applications) is 0.518 ± .13 mg. Also, where the note is “Dose 10%, Vehicle A, pH 8.8, vs vehicle treated side”, the “Percent Inhibition” value turned out to be 67.18%.
Take `CN1C(C(=O)Nc2ccccn2)=C(O)c2sccc2S1(=O)=O` [Tenoxican, 4-hydroxy-2-methyl-N-2-pyridinyl-2H-thieno[2,3-e]-1,2-thiazine-3-carboxamide-1,1-dioxide]: for the setting “Dose 15%, Vehicle B, pH 8.0, thirteen applications”, the “Hair Mass Treated” value was 0.326 ± .08 mg. The “Percent Inhibition” value (Dose 15%, Vehicle B, pH 8.0, vs vehicle treated side) stood at 85.38%.
For `CC(C(=O)O)c1ccc2c(c1)[nH]c1ccc(Cl)cc12` (stereo not drawn) [Carprofen, 6-chloro-α-methylcarbazole-2-acetic acid], the “Hair Mass Treated” value (Dose 20%, Vehicle C, pH 6.0, thirteen applications) is given as 0.776 ± .11 mg. Further, the “Percent Inhibition” value (Dose 20%, Vehicle C, pH 6.0, vs vehicle treated side) amounted to 29.69%.
As for `O=c1c(O)c(-c2ccc(O)c(O)c2)oc2cc(O)cc(O)c12` [Quercetin, 3,3′,4′,5,7-pentahydroxy flavone], the “reducing hair growth (result in words)” value is on record as “effective in reducing hair growth”. Where the note is “Dose 5%, Vehicle G, pH 6.0, thirteen applications”, the “Hair Mass Treated” value was 1.100 ± .10 mg. For the same molecule, for the setting “Dose 5%, Vehicle G, pH 6.0, vs vehicle treated side”, the “Percent Inhibition” value was determined as 27 ± 6%. In addition, the “Hair Mass Treated” value (Dose 10%, Vehicle E, pH 5.5, thirteen applications) is recorded as 0.419 ± .07 mg. The “Percent Inhibition” value (Dose 10%, Vehicle E, pH 5.5, vs vehicle treated side) came to 83 ± 4%.
As for `COc1ccc2c(c1)c(CC(=O)O)c(C)n2C(=O)c1ccc(Cl)cc1` [Indomethacin, 1-[p-chlorobenzoyl]-5-methoxy-2-methylindole-3-acetic acid], the “Hair Mass Treated” value is, setting by setting: under setting [1], 1.248 ± .20 mg; under setting [2], 1.084 ± .11 mg; under setting [3], 0.679 ± .08 mg; under setting [4], 0.768 ± .10 mg; under setting [5], 0.307 ± .08 mg; under setting [6], 0.261 ± .01 mg. Moreover, the “Hair Mass Treated” value under setting [7] is on record as 0.324 ± .08 mg. The “Percent Inhibition” value is, setting by setting: under setting [1], 43.41 ± 7.75%; under setting [2], 53.32 ± 4.17%; under setting [3], 49.89 ± 5.54%; under setting [4], 68.77 ± 3.02%; under setting [5], 83.78 ± 3.66%; under setting [6], 83.37 ± 1.46%. Moreover, the “Percent Inhibition” value under setting [7] was determined as 78.43 ± 4.39%.
Take `CCCOC(=O)c1cc(O)c(O)c(O)c1` [Propyl gallate, propyl gallate]: the “reducing hair growth (result in words)” value is “effective in reducing hair growth”.
`COc1ccc2cc(CCC(C)=O)ccc2c1` [Nabumetone, 4-[6-methoxy-2-naphthyl]-2-butanone]: where the note is “Dose 15%, Vehicle E, pH 6.0, thirteen applications”, the “Hair Mass Treated” value was 1.267 ± .23 mg. Also, where the note is “Dose 15%, Vehicle E, pH 6.0, vs vehicle treated side”, the “Percent Inhibition” value worked out at 23.23%.
For `O=C(O)C=Cc1ccc(O)c(O)c1` [Caffeic acid, 3,4-dihydroxycinnamic acid], the “reducing hair growth (result in words)” value is “effective in reducing hair growth”. For the same molecule, the “Hair Mass Treated” value (Dose 15%, Vehicle H, pH 4.0, thirteen applications) is on record as 0.797 ± .13 mg. Also, the “Percent Inhibition” value (Dose 15%, Vehicle H, pH 4.0, vs vehicle treated side) was 62 ± 7%.
Consider `O=c1cc(-c2ccc(O)cc2)oc2cc(O)cc(O)c12` [apigenin, 4′,5,7-trihydroxy flavone], for which the “reducing hair growth (result in words)” value is “effective in reducing hair growth”.
For the molecule `Cc1c(C)c2c(c(C)c1O)CCC(C)(CCCC(C)CCCC(C)CCCC(C)C)O2` (racemic) [dl-α-tocopherol], the “reducing hair growth (result in words)” value is given as “effective in reducing hair growth”.

The values above are taken from patent US6414017B2, “Inhibition of hair growth” (The Gillette Company, priority 1993, dated 2002).
